row,Structure (SMILES),melting point [°C]
1,COc1ccc(C2Nc3ccc(Cl)cc3C(C#CC3CC3)(C(F)(F)F)O2)cc1 (configuration not stated),130 to 132
2,CCc1noc(-c2ccc(OCCC3CCN(c4ccc(C)nn4)CC3)cc2)n1,122
3,O=C(Nc1cccc2c1C(=O)c1c-2n[nH]c1-c1ccc(C(=O)NC2CCCCC2)s1)NN1CCOCC1,264 to 267
4,NS(=O)(=O)c1ccc(-n2nc(C(F)F)cc2-c2ccc(Cl)cc2)cc1,185 to 186
5,C=CCCOc1ccc(CCCO)c(Oc2ncc(C(F)(F)F)cc2Cl)c1,75.2 to 75.8
6,O=c1c2c(Cc3ccc(C(F)(F)F)cc3)n[nH]c2c2cccnc2n1-c1cccc(C(F)(F)F)c1,145 to 148
7,CC(C)c1c(C=O)c(-c2ccccc2)c2c3ccccc3cnn12,163 to 164
8,CCCCCCCC[C@H](CC(=O)OC(C)(C)C)C(=O)N1C(=O)OC[C@@H]1C(C)C,58 to 59
9,Cc1c(Br)cc2c(c1C)OC(=O)C2(C)c1ccc(C(C)C)cc1 (configuration not stated),116 to 117
10,O=C(NC(=Cc1ccccc1)c1ccccc1)C(F)(F)F,148 to 150
11,CCC(C)C(NC(=O)OCc1ccccc1)C(=O)NC(C(=O)Nc1n[nH]c(=S)s1)C(C)C (configuration not stated),197 to 198
12,c1cc2ccc3occc3c2[nH]1,141 to 144
13,O=[N+]([O-])c1ccc(Oc2ccccc2)c(Cl)c1NCc1ccc(Cl)cc1,75 to 76
14,CCOC(=O)CCC(C#N)(c1cccc(F)c1)N1CCOCC1 (configuration not stated),88 to 90
15,O=C(NCc1c[nH]c(=S)n1[C@H]1CCc2c(F)cc(F)cc2C1)c1cccnc1,218 to 221
16,CN1CCC(=C2c3ccc(Cl)cc3C(=NO)Cc3cccnc32)CC1,172 to 175
17,NCC1Cc2cccc(-c3cccc(Cl)c3)c2O1 (configuration not stated),150 to 154
18,Brc1cccc(C2Cc3cnc(Nc4ccc(CCNCc5ccccc5)cc4)nc3-c3ccccc32)c1 (configuration not stated),98 to 100
19,COC(=S)NC1(N=NC(C)(C)C)CCCCC1,79 to 82
20,CC1(C)OC(=O)C(=CSCc2cccs2)C(=O)O1,109 to 111
21,Clc1nc2ncnn2c(NC2CCCC2)c1-c1ccsc1,78
22,Cc1cc(C(C#N)=CN(C)C)cc(C)n1,149

row,Structure (SMILES),melting point [°C]
1,O=C(Nc1ccccc1)c1ccc(F)c([N+](=O)[O-])c1,155 to 157
2,Oc1ccc(Cl)cc1C(O)(Cc1ccccc1)c1ccccc1 (configuration not stated),128
3,CCOCOc1cc(C)ccc1-c1cc(-c2cccc([N+](=O)[O-])c2)c(C#N)c(NC(=O)c2cccs2)n1,121 to 123
4,CC1(CS(=O)(=O)c2ccccc2)COC2(CCC(=O)CC2)OO1 (configuration not stated),96
5,C#CCc1c(C)nc2c(NCc3c(C)cccc3NC(=S)NC(=O)c3ccccc3)cccn12,165 to 166
6,CCCN(Cc1ccc(-c2ccccc2C(=O)C(=O)O)cc1)c1ncccc1C(=O)O,179 to 180
7,O=C(CCl)Nc1csc(Br)n1,146 to 148
8,CC1Cc2cccc(-c3ccccc3)c2C1=O (configuration not stated),81.5 to 83
9,O=S(=O)(Cc1ccccc1)Nc1ncc(-c2ccccc2)nc1Cc1ccccc1,207 to 208
10,Cc1ccc(NCc2ccc(N(C)C)cc2)c(C)c1,79 to 80
11,CCCCOCCOc1ccc(-c2ccc3c(c2)C=C(C(=O)Nc2ccc(/C(Cc4nccn4CCC)=N/OCC)cc2)CCN3CC(C)C)cc1,156
12,O=C(O)c1cc(OCCOc2cccc3ccccc23)cc(OCCOc2cccc3ccccc23)c1,213 to 215
13,CC(C)(C)OC(=O)NCCCCn1c(-c2ccccc2)nc2c(N)nc3ccccc3c21,182 to 183
14,CN(C(CCn1c(=O)cc(C(F)(F)F)[nH]c1=O)C(=O)NO)S(=O)(=O)c1ccc(Oc2cccc(Cl)c2)cc1 (configuration not stated),168 to 169
15,CN(C)CCNc1ccc(C=O)c2sc3ccc(O)cc3c(=O)c12,219 to 220
16,CC(=O)OCc1c(C)cc(C)c(NC(=O)c2sccc2S(=O)(=O)Nc2onc(C)c2C)c1C,75 to 77
17,O=C1c2cc(N3CCN(Cc4ccccc4)CC3)ccc2OC12CC2,125 to 126
18,CCC(C(=O)OC1CC(=O)NC1=O)c1ccccc1 (configuration not stated),96.5 to 97.5
19,CCc1cc(-c2[nH]c3ccccc3c2CC)cc(CC)c1O,96.3 to 96.7
20,Nc1cccc(-c2ccc(Cl)nn2)c1,118 to 121
21,CCOC(=O)C(=Cc1ccco1)c1csc(N)n1,109 to 110
22,CNC(=S)NCCCCc1c[nH]c(NC(=N)N)n1,179 to 184

row,Structure (SMILES),melting point [°C]
1,CN(C(=O)COc1nc2cccc(F)c2s1)c1ccccc1,116
2,CC(c1oc2ccccc2c(=O)c1-c1cccc(F)c1)n1nc(-c2ccc3c(c2)OCCCO3)c2c(N)ncnc21 (configuration not stated),234 to 237
3,CC(c1ccc(S(C)(=O)=O)cn1)C(O)(Cn1cncn1)c1ccc(F)cc1F (configuration not stated),176 to 177
4,N#CC1CN1C(=O)NC(=O)c1cccs1 (configuration not stated),156 to 160
5,CCN(CC)c1ccc(C2OC(C)(C)N=C2c2ccccc2)cc1 (configuration not stated),104 to 105
6,CCc1cccc(C)c1CNc1cc(Br)cc2c1nc(C)n2COCc1ccccc1,117 to 119
7,O=C1NCC(Cc2ccc(Br)cc2)O1 (configuration not stated),115 to 117
8,O=S(=O)(Cc1ccccc1)c1cccc2c1ccn2-c1ccnc(N[C@H]2CC[C@H](O)CC2)n1,132 to 134
9,N#Cc1cccc(C(=O)Nc2c(Cl)cncc2Cl)c1,242 to 244
10,CC(CO)(CO)NS(=O)(=O)c1cc(NC(=O)c2cnn3c(C(F)(F)F)cc(-c4ccc(C(F)(F)F)cc4)nc23)c(Cl)s1,201
11,O=C(c1ccccc1)c1ccc(Nc2ncnc3ccc(-n4ccnc4)cc23)cc1Cl,220 to 223
12,COc1ccc(/C=C/c2ccc3nc(C(=O)N[C@@H](Cc4ccc(OCc5ccccc5)cc4)C(=O)O)cn3c2)cc1,262 to 263
13,N=C(NN)c1cccc(Cc2c[nH]cn2)c1O,188
14,Nc1cc(-c2ccc(C(F)(F)F)cc2)no1,142 to 144
15,CC(=O)OCc1csc(Nc2ccc(Br)cn2)n1,201 to 202
16,Cc1oc(-c2ccccc2)nc1COc1ccc(COc2ccc3ccccc3c2CCC(=O)O)cc1,161 to 162
17,S=C(Cc1ccc(Cl)cc1)N1CCCCC1,82.5 to 83.5
18,Fc1cccc(F)c1COc1cccnc1NC(=S)Nc1ccccc1,132 to 133
19,Cn1nnnc1NC(=O)c1cccc2cccnc12,224 to 225
20,COCC#Cc1ccc(CNC(=O)[C@@H](COC)NC(C)=O)cc1,141 to 142
21,CC(C)CCC(=O)NC[C@H](O)[C@H](O)[C@H](CC1CCCCC1)NC(=O)OC(C)(C)C,179 to 183
22,O=c1c2c(c1=O)N(CCCP(=O)(O)O)CCCN2,244 to 248

# Results, then the compound that gave them:
row,melting point [°C],Structure (SMILES)
1,82 to 83,CCC(O)(c1ccc(OCCCN2CCC(C)CC2)cc1)c1ccccc1OC (configuration not stated)
2,172 to 178,Cc1ccc(S(=O)(=O)OC(=O)c2cccc(C(=O)OS(=O)(=O)c3ccc(C)cc3)c2)cc1
3,176 to 178,NC(=O)/C=C/c1cc2c(Oc3ccc(Cl)cc3)cncc2s1
4,69 to 77,CC(=O)OCC1OC(n2ccc(=O)[nH]c2=O)C(Br)C1OC(C)=O (configuration not stated)
5,162 to 163,COC(=O)c1c(O)cc(OCC(=O)c2ccc3c(c2)C(C)(C)CCC3(C)C)cc1O
6,144 to 145,CCOC(=O)c1cc2ccc(Cl)nc2[nH]1
7,146 to 148,CCOC(=O)c1ccc(C(=O)Sc2cccn3c(=O)c(C(=O)OCC)cnc23)cc1
8,140 to 141,CC(=O)Nc1nc(CCc2ccc(CN3CCN(C(=O)OC(C)(C)C)CC3)cc2)cs1
9,107 to 108,COc1ccc(CCNc2nccc(-c3cccc(NC(=O)CCN(C)C)c3)n2)cc1OC
10,151 to 153,COC(=O)C1=C(C)NC(C)=C(C(=O)OCCCCCCOc2cc(-c3ccccc3)[nH]n2)C1c1cccc([N+](=O)[O-])c1 (configuration not stated)
11,150,Cc1cc(C)c2cccc(OCc3c(C)ccc(S(=O)(=O)N4CCC[C@H]4C(=O)NCCCNC(=O)c4ccc(C=NN)cc4)c3C)c2n1
12,114 to 116,COc1ccc(Cc2nc(OCc3ccccc3)cc3cc(OC)c(OC)cc23)cc1OC
13,79 to 82,CC(C)(C(N)=O)c1cccc(Cn2ccnc2)c1
14,175 to 176,CCOc1cc2c(cc1OCC)C1(CCC(C(=O)O)(C(=O)O)CC1)N(C(=O)OCc1ccccc1)CC2
15,113 to 131,COc1cc2c(cc1Nc1ncc(Cl)c(Nc3ccc(C(N)=O)cc3OC)n1)CCN(CC(=O)N(C)C)CC2
16,247 to 248,CCCCCCCCCCOc1ccc(C(=O)Nc2ccc(C(=O)O)cc2)cc1C12CC3CC(CC(C3)C1)C2

row,melting point [°C],Structure (SMILES)
1,79 to 81,CC(C)Oc1cc(-n2c(=O)c(F)c(CF)n(C)c2=O)c(F)cc1Cl
2,82 to 83,CCc1c(OC)cc(/C=C(\SC)S(C)=O)cc1OC (configuration not stated)
3,161 to 162,CC(C)(C)OCOc1cc(NC(=O)NC(=O)c2ccc(C#N)cc2)ccc1OCC(=O)OC(C)(C)C
4,73 to 74,COc1cccc2c1C(C)C(=O)N2C (configuration not stated)
5,95 to 96,CCOC(=O)C1=CCCCC1S(=O)(=O)Nn1cccc1C1CC1 (configuration not stated)
6,260 to 264,O=C(CCNc1c(C(=O)O)[nH]c2cc(Cl)ccc12)c1ccc(F)c(F)c1
7,180 to 181,COc1ccc(Cl)cc1S(=O)(=O)N1C2CCC1CN(CC(=O)Nc1ccccc1C)C2
8,191 to 192,Cc1cn([C@H]2C=C[C@@H](O)C2)c(=O)[nH]c1=O (racemic)
9,55 to 56,COCc1c(OCc2ccccc2)ccc2c1CCCC2=O
10,176 to 178,CSc1ccc(C(N)=O)c([N+](=O)[O-])c1
11,172,COc1cc(C(=O)N2CC(O)CC2C(N)=O)cc(OC)c1OC (configuration not stated)
12,176 to 180,COc1ccccc1Oc1c(Cl)nc(-c2cccc(OCc3ccccc3)c2)nc1NS(=O)(=O)c1ccc(C)cn1
13,151 to 157,CCCCCN(C(=O)Nc1ccc(C(=O)O)cc1F)c1ccc2c(c1)C(C)(C)CCC2(C)C
14,145 to 146,C=CCNC(=O)COc1ccc(C2=NNC(=O)CC2)cc1Cl
15,267 to 268,COc1cc2c(c(Cl)c1Cl)S(=O)(=O)C(c1ccccc1F)=C2

# — a melting point compilation (Tetko et al.; mined from patent text by program, amines drawn as free bases though some values may be those of a salt)
